Laboratory results: patent US9012481B2, “Benzoarylureido compounds, and composition for prevention or treatment of neurodegenerative brain disease containing the same” (Korea Institute of Science and Technology, priority 2009, dated 2015)

Key:
BV-2 cells = test: Microscope analysis of cell shape, beta-amyloid treated BV-2 cells; type: cell-based; settings: 50 nM KHG25967 for 24 hours after 50 μM beta-amyloid for 2 hours
Experimental: BV-2 microglia cells (allotted from Pharmacology Division of Ajou University) were cultivated in DMEM (Dulbecco's Modified Eagle's Medium) supplemented with 5% fetal bovine serum (Invitrogen, Carlsbad, Calif., USA), sou/Ml penicillin (Invitrogen, Carlsbad, Calif., USA), and 50 μg/Ml streptomycin (Invitrogen, Carlsbad, Calif., USA) under the atmosphere condition with 5% CO2 and 95% air at 37° C. The medium was replaced once a day, the cells were plate-cultured in a density according to the scale of each experiment.
BV-2 cells were pre-treated with 50 μM of beta-amyloid, and 50 nM of KHG25967 compound was added to the beta-amyloid treated cells for 24 hours. For microscope analysis, BV-2 cells were used in 6-well plate at the density of 5×10^5 cells/well, for MTT analysis, BV-2 cells were used in 96-well plate at the density of 5×10^4 cells/well.
The obtained prevention effects of KHG25967 compound on toxicity induced by beta-amyloid in BV-2 cells were FIGS. 1A and 1b.

phospho-ERK1 = test: Immunoblotting of phospho-ERK1 in beta-amyloid stimulated BV-2 cell culture; type: cell-based
Experimental: (§1) The beta-amyloid treated cells (6-well of 5×10^5 cells/3 Ml, allotted from Pharmacology Division of Ajou University) were collected, and washed with phosphate-buffered saline (PBS). After centrifugation, the cells were dissolved in 0.1 ml of RIPA buffer (containing 150 mM NaCl, 1% NP-40, 0.5% sodium deoxycholate, 0.1% SDS, 50 mM Tris-HCl, pH 7.4, 50 mM glyycerophosphate, 20 mM NaF, 20 mM EGTA, 1 mM DTT, 1 mM Na3VO4, and protease inhibitor) at 4° C. for 15 minutes by strong shaking. The cells were cultivated in ice for 10 minutes, the lysate was centrifuged at 14,000 rpm for 5 minutes. 20 μg of a protein obtained from the cell lysate was heated, and then, electrophoresed on 12% polyacrylamide gel under reduction condition. The cells were incubated in blocking buffer (20 mM Tris, pH 7.4-buffer saline containing 0.1% tween 20 containing 5% lipid-free dried milk) for 1 hour, to suppress non-specific binding. […]
(§2) To examine the effect of compound KHG25967 on phosphorylation of ERK (extracellular signal-regulated kinase) and expression of caspase 3 by beta-amyloid, a possible protein expression of ERK1/2 (extracellular signal-regulated kinase 1 & 2) and caspase 3 in BV-2cell culture stimulated with beta-amyloid were measured. […]

phospho-ERK2 = test: Immunoblotting of phospho-ERK2 in beta-amyloid stimulated BV-2 cell culture; type: cell-based; settings: beta-amyloid together with KHG25967 (50 nM) compared to beta-amyloid only
Experimental: as §1, §2

caspase 3 = test: Immunoblotting of cleaved caspase 3 in beta-amyloid stimulated BV-2 cell culture; type: cell-based; settings: beta-amyloid together with KHG25967 (50 nM) compared to beta-amyloid only
Experimental: as §1, with “condition.” for “condition. The cells were incubated in blocking buffer (20 mM Tris, pH 7.4-buffer saline containing 0.1% tween 20 containing 5% lipid-free dried milk) for 1 hour, to suppress non-specific binding.”
To examine the effect of compound KHG25967 on phosphorylation of ERK (extracellular signal-regulated kinase) and expression of caspase 3 by beta-amyloid, a possible protein expression of ERK1/2 (extracellular signal-regulated kinase 1 & 2) and caspase 3 in BV-2cell culture stimulated with beta-amyloid were measured.
The activity of caspase 3 was measured as a cleavage at aspartic acid and serine by a stimulation, which is measured using anti-cleavage-caspase 3 antibody (Cell Signaling Technology Inc, Beverly, Mass., USA) through immunoblotting analysis. […]

interleukin-1beta [1] = test: ELISA of interleukin-1beta in LPS-treated BV-2 cells; type: cell-based; settings: LPS 1 μg/ml for 2 hours, then 50 nM KHG25967 for 6 hours; compared to LPS only as 100%
Experimental: (§3) Lipopolysaccharide (LPS)-treated cells (6-well of 5×10^5 cells/3 Ml, Fluka, Sigma-Aldrich, St. Louis, Mo., USA) were collected, and washed with phosphate-buffered saline (PBS). The cells were centrifuged, and then dissolved in pro-prep lysis buffer at 4° C. Interleukin-1 beta and tumor necrosis factor-alpha in the cell lysis solution wherein the cells were dissolved were measured by enzyme-linked immunosorbent analysis plate (R&D systems inc, Minneapolis, Minn., USA). The absorbance at 450 nm was measured using microplate reader. In addition, cytokine was measured using a cytokine measuring system (R&D systems inc, Minneapolis, Minn., USA).
(§4) BV-2 cells were pre-treated with 1 μg/ml of LPS (Fluka, Sigma-Aldrich, St. Louis, Mo., USA) for 2 hours, and then, further treated with 50 nM KHG25967 for 6 hours. The changed amounts of cytokines of tumor necrosis factor-alpha and interleukin-1beta were measured from lysate solution where the cells were dissolved in cell lysate solution (Intron Biotechnology, Seoul, Korea).

[2] = test system: tumor necrosis factor-alpha; test: ELISA of tumor necrosis factor-alpha in LPS-treated BV-2 cells; type: cell-based; settings: LPS 1 μg/ml for 2 hours, then 50 nM KHG25967 for 6 hours; compared to LPS only as 100%
Experimental: as §3, §4

interleukin-1beta [3] = test: LPS-induced interleukin-1beta in brain and serum of C57BL/6 mice; type: in vivo; settings: oral KHG25967 10 mg/kg or 20 mg/kg every day for 2 weeks, then LPS 10 mg/kg into brain, 6 hours
Experimental: (§5) The animal experiment was performed using C57BL/6 mice ([…], 12-14 weeks old, Harlan Sprague Dawley inc, Indianapolis, Ind., USA) by stereotaxis. The intracerebroventricular (ICV) injection was according to the intracerebroventricular injection system described in Craft et al., 2004b. The mice were grown in an accommodation for SPF (specific pathogen free) under 12 hours light/12 hours dark repeat, and supplied with water and feed as recommended by the accommodation for SPF. The study was reviewed and approved by the Institutional Animal Care and Use Committee (IACUC) of Asan Institute for Life Sciences, Asan Medical Center, which abides by the Institute of Laboratory Animal Resources (ILAR) guide.
(§6) The effect of KHG25967 on the change of pro-inflammatory cytokines was examined in vivo using 12-14 week old C57BL/6 mice. The control group was administered with PBS only for 2 weeks and then, further treated with PBS for 6 hours. The LPS group was administered with PBS only for 2 weeks and then, 10 mg/kg of LPS was administered into brain using streotaxis. The KHG25967 treated group was administered with 10 mg/kg or 20 mg/kg of KHG25967 every day for 2 weeks, and then, 10 mg/kg of LPS was administered into brain using streotaxis. […] The changes in the level of pro-inflammatory cytokines (interleukin-1beta and tumor necrosis factor-alpha) in the separated blood and brain were measured.

[4] = test system: tumor necrosis factor-alpha; test: LPS-induced tumor necrosis factor-alpha in brain and serum of C57BL/6 mice; type: in vivo; settings: oral KHG25967 10 mg/kg or 20 mg/kg every day for 2 weeks, then LPS 10 mg/kg into brain, 6 hours
Experimental: as §5, §6

SMILES: O=C(O)CNC(=O)Nc1nc2ccccc2s1 [KHG25967, 2-(3-benzo[d]thiazole-2-ylureido)acetic acid]
- morphological characteristics of damaged cells (FIG. 1A) (BV-2 cells): alleviated
- reduction of expression level of phospho-ERK1 (FIG. 2B) (phospho-ERK1; beta-amyloid together with KHG25967 (50 nM) compared to beta-amyloid only): 90%
- increase of phospho-ERK1/2 (Western blot, FIG. 2A) (phospho-ERK1; culture treated with beta-amyloid in the presence of 50 nM KHG25967): considerably weakened
- reduction of expression level of phospho-ERK2 (FIG. 2B) (phospho-ERK2): 70%
- reduction of expression level of cleavage-caspase 3 (FIG. 2C) (caspase 3): 93%
- suppression of interleukin-1beta level (FIG. 3A) (interleukin-1beta [1]): 70%
- suppression of tumor necrosis factor-alpha level (FIG. 3B) [2]: 61%
- level of interleukin-1beta in blood (serum, FIG. 4C) (interleukin-1beta [3]): no specific difference
- decrease of interleukin-1beta level in brain (FIG. 4A) (interleukin-1beta [3]; compared with LPS only as 100%): 55%
- level of tumor necrosis factor-alpha in blood (serum, FIG. 4D) [4]: no specific difference
- decrease of tumor necrosis factor-alpha level in brain (FIG. 4B) ([4]; compared with LPS only as 100%): 42%
